Laboratory results as given in paper PMC8288134, “Synthesis, potential antitumor activity, cell cycle analysis, and multitarget mechanisms of novel hydrazones incorporating a 4-methylsulfonylbenzene scaffold: a molecular docking study” (Journal of Enzyme Inhibition and Medicinal Chemistry, 2021).
Read-outs that look alike come from different tables or passages of the source.

Key:
EGFR = EGFR (Homo sapiens, UniProt P00533); assay: biochemical; details: read-out: IC50 EGFR Inhibition
Source text: (§1) In vitro luminescent EGFR tyrosine kinase assay using Kinase-Glo® MAX as a detection reagent, and In vitro HER2 tyrosine kinase assay using DP‐Glo™ reagent that measures ADP formed from a kinase reaction, this luminescent signal positively correlates with ADP amount and kinase activity. […]
(§2) 2.1.5. EGFR and Her2 assays
(§3) In vitro luminescent EGFR tyrosine kinase assay, using Kinase-Glo® MAX as a detection reagent, and In vitro HER2 tyrosine kinase assay, using DP‐Glo™ reagent that measures the adenosine diphosphate (ADP) formed from a kinase reaction, were performed; this luminescent signal positively correlates with ADP amount and kinase activity. In 17 μl of distilled water, 6 μl of Kinase assay buffer and 1 μl ATP and 1 μl PTK substrate were mixed (master mixture). In every well, mix 20 μl of the master mixture and 5 μl of Inhibitor solution (Test Inhibitor) for positive control, and use 5 μl of the same solution without inhibitor (Inhibitor buffer) as the blank solution; add 20 μl of diluted EGFR or Her2 enzyme and incubate at 30°C for 40 min. Add 50 μl of Kinase-Glo Max reagent to each well, cover the plate with aluminum foil and incubate the plate at room temperature for 15 min. Afterward, measure luminescence using the microplate reader. “Blank” value is subtracted from all readings. […]

HER2 = HER2 (Homo sapiens, UniProt P04626); assay: biochemical; details: read-out: IC50 HER2 Inhibition
Source text: as §1, §2, §3

HOP-62 = assay: NCI antitumor screen (SRB); type: cell-based; details: Homo sapiens
NCI-H322M = assay: NCI antitumor screen (SRB); type: cell-based; details: Homo sapiens; for inhibition at 10 µM: one dose 10 µM, read-out: Growth inhibition percentage (GI%)
HT29 = assay: NCI antitumor screen (SRB); type: cell-based; details: Homo sapiens; for inhibition at 10 µM: HT-29, one dose 10 µM, read-out: Growth inhibition percentage (GI%)
HL60 cells = assay: Annexin V-FITC/PI apoptosis assay; type: cell-based, human; details: HL60, 10 µM, 24 h
Method: Apoptosis induction is the most important mechanism by which major chemotherapeutics kill cancer cells. Apoptosis causes cellular changes whereby the translocation of phosphatidylserine (PS) occurs through the plasma membrane from the inside to the outside. Annexin-V can bind to PS, which can be used as a sensitive probe for PS on the outer side of the plasma membrane. […] The AV/PI staining of HL60 cells was performed at a mixed molar concentration of 10 µM with compounds 6, 9, 16, and 20 for 24 h. Figure 4 and Table 5 show the results of treating HL60 cells with compounds 6, 9, 16, and 20 for 24 h.
According to our previous report, apoptosis induction was performed using the Leukaemia HL-60 cell line and well-established Annexin 5-FITC/PI detection kit. The cell line samples were analysed using FACSCalibur flow cytometer[40]^,[72]. […]
[(Ti-Tz)/Tz)] x 100 for concentration of which Ti ≤ Tz.
The induction of apoptosis was performed according to our previous report using Leukemia HL-
60 cell line and well-established Annexin 5-FITC/PI detection kit. The cell line samples were
analyzed using a FACSCalibur flow cytometer. […]

[1] = test system: full panel of 59 cancer cell lines; assay: NCI antitumor screen, full panel; details: for PCE: positive cytotoxic effect (number of cell lines with GI 10 to 100% / total number of cell lines): one dose 10 µM
SK-MEL-28 = assay: NCI antitumor screen (SRB); type: cell-based, human; details: for inhibition at 10 µM: read-out: Growth inhibition percentage (GI%)
COLO 205 = assay: NCI antitumor screen (SRB); type: cell-based; details: Homo sapiens; for inhibition at 10 µM: one dose 10 µM, read-out: Growth inhibition percentage (GI%)
SW-620 = assay: NCI antitumor screen (SRB); type: cell-based; details: Homo sapiens; for inhibition at 10 µM: one dose 10 µM, read-out: Growth inhibition percentage (GI%)
PRMI-8226 = assay: NCI antitumor screen (SRB); type: cell-based; details: Homo sapiens; for inhibition at 10 µM: one dose 10 µM, read-out: Growth inhibition percentage (GI%)
[2] = test system: CNS cancer tumour cell lines; details: cited from earlier work
[3] = HOP-62, one dose 10 µM, read-out: Growth inhibition percentage (GI%)
[4] = five concentrations 0.01-100 µM
[5] = Homo sapiens, SK-MEL-28, SK-MEL-28, one dose 10 µM

HER2, sequence (P04626 23-1255): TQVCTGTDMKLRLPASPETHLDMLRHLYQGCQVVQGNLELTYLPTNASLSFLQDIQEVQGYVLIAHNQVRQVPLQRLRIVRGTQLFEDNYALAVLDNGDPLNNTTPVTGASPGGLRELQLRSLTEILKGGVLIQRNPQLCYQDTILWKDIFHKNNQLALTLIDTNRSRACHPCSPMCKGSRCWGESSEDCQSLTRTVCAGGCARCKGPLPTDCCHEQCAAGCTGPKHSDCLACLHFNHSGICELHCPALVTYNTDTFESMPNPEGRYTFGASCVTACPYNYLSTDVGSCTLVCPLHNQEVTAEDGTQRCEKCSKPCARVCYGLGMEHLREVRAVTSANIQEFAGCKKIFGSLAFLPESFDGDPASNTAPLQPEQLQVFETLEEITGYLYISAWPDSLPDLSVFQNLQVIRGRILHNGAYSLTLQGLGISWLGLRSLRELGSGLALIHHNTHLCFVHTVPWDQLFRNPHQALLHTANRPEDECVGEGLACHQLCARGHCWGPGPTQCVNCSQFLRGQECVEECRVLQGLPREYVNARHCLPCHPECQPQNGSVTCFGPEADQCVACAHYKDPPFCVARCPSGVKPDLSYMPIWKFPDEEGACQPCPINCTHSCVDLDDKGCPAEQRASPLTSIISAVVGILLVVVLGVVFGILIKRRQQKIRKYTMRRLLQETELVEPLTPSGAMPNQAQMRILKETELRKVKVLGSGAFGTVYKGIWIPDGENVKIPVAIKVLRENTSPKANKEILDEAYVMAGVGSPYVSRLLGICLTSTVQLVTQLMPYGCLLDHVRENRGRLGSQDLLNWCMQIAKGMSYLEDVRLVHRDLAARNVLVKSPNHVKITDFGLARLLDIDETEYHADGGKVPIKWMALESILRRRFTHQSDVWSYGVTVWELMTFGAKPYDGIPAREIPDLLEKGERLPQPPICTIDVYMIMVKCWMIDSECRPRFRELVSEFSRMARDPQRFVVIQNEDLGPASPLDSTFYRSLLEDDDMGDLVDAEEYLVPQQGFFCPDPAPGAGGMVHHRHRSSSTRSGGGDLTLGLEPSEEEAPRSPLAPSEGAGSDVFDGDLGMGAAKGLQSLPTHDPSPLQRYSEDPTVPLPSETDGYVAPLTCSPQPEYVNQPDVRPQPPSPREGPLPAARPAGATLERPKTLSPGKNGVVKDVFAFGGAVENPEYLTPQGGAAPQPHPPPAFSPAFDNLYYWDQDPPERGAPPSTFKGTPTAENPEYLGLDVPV
EGFR, sequence (P00533 25-1210): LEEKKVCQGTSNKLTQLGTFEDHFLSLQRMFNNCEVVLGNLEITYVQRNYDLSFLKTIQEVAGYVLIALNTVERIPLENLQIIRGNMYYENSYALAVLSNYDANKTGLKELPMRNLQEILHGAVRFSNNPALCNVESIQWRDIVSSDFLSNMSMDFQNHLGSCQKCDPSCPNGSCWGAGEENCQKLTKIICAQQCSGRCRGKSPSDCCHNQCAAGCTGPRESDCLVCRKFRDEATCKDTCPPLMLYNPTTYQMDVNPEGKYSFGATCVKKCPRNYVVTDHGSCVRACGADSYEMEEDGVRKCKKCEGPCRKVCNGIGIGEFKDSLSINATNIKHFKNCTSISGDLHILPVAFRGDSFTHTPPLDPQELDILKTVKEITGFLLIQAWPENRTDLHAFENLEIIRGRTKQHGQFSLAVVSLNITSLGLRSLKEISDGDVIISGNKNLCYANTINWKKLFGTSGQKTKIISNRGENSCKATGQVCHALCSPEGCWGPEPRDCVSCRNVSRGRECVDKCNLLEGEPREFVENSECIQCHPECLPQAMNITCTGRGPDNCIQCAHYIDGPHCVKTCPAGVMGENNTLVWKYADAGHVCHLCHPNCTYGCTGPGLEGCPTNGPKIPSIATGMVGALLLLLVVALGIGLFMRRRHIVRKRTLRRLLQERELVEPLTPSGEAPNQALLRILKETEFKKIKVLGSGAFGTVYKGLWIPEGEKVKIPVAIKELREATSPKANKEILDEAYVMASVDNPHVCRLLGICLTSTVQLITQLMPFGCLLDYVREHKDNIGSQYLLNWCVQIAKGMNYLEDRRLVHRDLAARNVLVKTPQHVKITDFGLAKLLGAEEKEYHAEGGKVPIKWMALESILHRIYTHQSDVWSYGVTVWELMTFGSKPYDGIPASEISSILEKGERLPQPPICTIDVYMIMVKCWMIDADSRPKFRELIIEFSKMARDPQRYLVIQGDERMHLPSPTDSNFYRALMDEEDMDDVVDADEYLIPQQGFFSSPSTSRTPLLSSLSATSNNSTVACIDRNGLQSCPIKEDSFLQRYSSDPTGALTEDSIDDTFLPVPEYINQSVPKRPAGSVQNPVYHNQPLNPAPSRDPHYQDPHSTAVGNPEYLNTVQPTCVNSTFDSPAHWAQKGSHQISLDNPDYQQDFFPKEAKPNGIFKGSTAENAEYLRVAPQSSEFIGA

With `CS(=O)(=O)c1ccc(C(=O)NN=Cc2cccc3ccccc23)cc1` [Compound 6, 4-(Methylsulfonyl)-N'-(naphthalen-1-ylmethylene)benzohydrazide] the IC50 (EGFR) was 260 ± 90 nM, the IC50 (HER2) was 350 ± 10 nM and the inhibition at 10 µM (HOP-62; HOP-62, read-out: Growth inhibition percentage (GI%)) was 25.1%. For the same molecule, the inhibition at 10 µM (NCI-H322M) was < 10%, the inhibition at 10 µM (HT29) was 50.5% and the “Apoptosis, early” value (HL60 cells) was 3.52%. The “Apoptosis, late” value (HL60 cells) was 7.64%, the “Apoptosis, total (annexin V-FITC positive cells)” value (“Apoptosis, total” below) (HL60 cells) was 12.57% and the Necrosis (HL60 cells) was 1.41%. The “PCE: positive cytotoxic effect (number of cell lines with GI 10 to 100% / total number of cell lines)” value [1] was 52/59, the inhibition at 10 µM (SK-MEL-28; Homo sapiens, SK-MEL-28, one dose 10 µM) was 10.6% and the inhibition at 10 µM (COLO 205) was 14.3%. It also gave an inhibition at 10 µM (SW-620) of 63.8% and an inhibition at 10 µM (PRMI-8226) of 12.3%.
With `CCN(CC)c1ccc(/C=N/NC(=O)c2ccc(S(C)(=O)=O)cc2)c(O)c1` [Compound 20] the IC50 (EGFR) was 190 ± 10 nM, the IC50 (HER2) was 70 ± 20 nM and the GI50 (HOP-62; HOP-62, five concentrations 0.01-100 µM) was 85 nM. The inhibition at 10 µM (HOP-62; [3]) was 87.1%, the GI50 (NCI-H322M; [4]) was 228 nM and the inhibition at 10 µM (NCI-H322M) was 75%. The GI50 (HT29; HT-29, five concentrations 0.01-100 µM) was 297 nM, the inhibition at 10 µM (HT29) was 78.2% and the “Apoptosis, early” value (HL60 cells) was 8.42%. The “Apoptosis, late” value (HL60 cells) was 12.66%, the “Apoptosis, total” value (HL60 cells) was 24.31% and the Necrosis (HL60 cells) was 3.23%. The GI50 ([1]; Homo sapiens, read-out: GI50 (range over cell lines)) was 63 to 11700 nM, the GI50 ([1]; Homo sapiens, read-out: GI50 MG-MID (full panel mean-graph midpoint)) was 260 nM and the CC50 ([1]; Homo sapiens, read-out: LC50 MG-MID (full panel mean-graph midpoint)) was > 100000 nM. The “TGI MG-MID (full panel mean-graph midpoint)” value ([1]; full panel) was 46800 nM, the “PCE: positive cytotoxic effect (number of cell lines with GI 10 to 100% / total number of cell lines)” value [1] was 59/59 and the “fold more potent than 5-Fu” value ([1]; ratio of GI50 MG_MID) was ~3 fold. For the same molecule, the “fold more potent than celecoxib” value ([1]; ratio of GI50 MG_MID) was ~65 fold, the “fold more potent than erlotinib” value ([1]; ratio of GI50 MG_MID) was ~30 fold and the “fold more potent than gefitinib and sorafenib” value ([1]; ratio of GI50 MG_MID) was ~9 fold. For the same molecule, the inhibition at 10 µM (SK-MEL-28; [5]) was 72.9%, the GI50 (SK-MEL-28; Homo sapiens, SK-MEL-28, five concentrations 0.01-100 µM) was 340 nM and the “Growth inhibition percentage (GI%)” value (SK-MEL-28; SK-MEL-28, one dose 10 µM) was 72.8%. For the same molecule, the GI50 (COLO 205; [4]) was 269 nM, the inhibition at 10 µM (COLO 205) was 91.4% and the GI50 (SW-620; [4]) was 387 nM. For the same molecule, the inhibition at 10 µM (SW-620) was 67%, the GI50 (PRMI-8226; [4]) was 297 nM and the inhibition at 10 µM (PRMI-8226) was 79%.
In the case of `Cc1ccc(C=NNC(=O)c2ccc(S(C)(=O)=O)cc2)cc1` [Compound 9, N'-(4-Methylbenzylidene)-4-(methylsulfonyl)benzohydrazide], the IC50 (EGFR) is reported as 770 ± 30 nM, the IC50 (HER2) is reported as 410 ± 10 nM and the inhibition at 10 µM (HOP-62; [3]) is reported as < 10%. For the same molecule, the inhibition at 10 µM (NCI-H322M) was < 10%, the inhibition at 10 µM (HT29) was 17.7% and the “Apoptosis, early” value (HL60 cells) was 5.66%. For the same molecule, the “Apoptosis, late” value (HL60 cells) was 9.04%, the “Apoptosis, total” value (HL60 cells) was 16.89% and the Necrosis (HL60 cells) was 2.19%. For the same molecule, the “PCE: positive cytotoxic effect (number of cell lines with GI 10 to 100% / total number of cell lines)” value [1] was 27/59, the inhibition at 10 µM (SK-MEL-28; [5]) was < 10% and the inhibition at 10 µM (COLO 205) was < 10%. The inhibition at 10 µM (SW-620) was 15.2% and the inhibition at 10 µM (PRMI-8226) was < 10%.
For `O=c1[nH]cc(F)c(=O)[nH]1` [Compound 5-Fu, 5-fluorouracil, reference compound], the inhibition at 10 µM (HOP-62; [3]) is given as 52.2%, the GI50 ([2]; read-out: GI50 (subpanel average), reference drugs, ref https://dtp.cancer.gov/dtpstandard/dwindex/index.jsp) is given as 14400 nM and the CC50 ([2]; read-out: LC50 (subpanel average), reference drugs, ref https://dtp.cancer.gov/dtpstandard/dwindex/index.jsp) is given as > 100000 nM. The “TGI (subpanel average)” value ([2]; reference drugs, ref https://dtp.cancer.gov/dtpstandard/dwindex/index.jsp) was 73700 nM, the inhibition at 10 µM (NCI-H322M) was 40.5% and the inhibition at 10 µM (HT29) was 72.9%. The inhibition at 10 µM (COLO 205) was 59.8%, the inhibition at 10 µM (SW-620) was 49.9% and the inhibition at 10 µM (PRMI-8226) was 58.6%.
